The structures appear in SMILES notation. pEC50: −log10 of the molar value. Some results are limits rather than exact numbers.

Results on 34 compounds are retold here after patent US20240150377A1, “MODULATORS OF CYSTIC FIBROSIS TRANSMEMBRANE CONDUCTANCE REGULATOR” (VERTEX PHARMACEUTICALS INCORPORATED, priority 2020, published 2024).

This assay concerns the target T1, CFTR (Homo sapiens, UniProt P13569, DEL508-508).
T1 construct: endogenous in cells; host or cells: primary human bronchial epithelial cells from CF subjects (F508del/MF-HBE), differentiated at air-liquid interface
Put plainly: HBE2 assay: Ussing chamber assay of CFTR-mediated short-circuit currents. The conditions noted are these: F508del/MF-HBE cells, 18-24 hours, 20% human serum; for Emax: read-out: HBE2 Max activity (%). The class given is cell-based. Summed up:
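F508del/MF-HBE cultured >14 days at air-liquid interface, mounted in Ussing chambers; transepithelial short-circuit current recorded under voltage clamp (Vhold=0 mV) at 37 °C. CFTR-mediated ISC (μA/cm^2) taken as peak forskolin response relative to steady-state current after inhibition; corrector activity assessed this way.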

Where [1] appears, read: 3 μM corrector, with 44 nM potentiator.

T1 sequence (P13569 with tags, fused parts or gaps DEL508-508): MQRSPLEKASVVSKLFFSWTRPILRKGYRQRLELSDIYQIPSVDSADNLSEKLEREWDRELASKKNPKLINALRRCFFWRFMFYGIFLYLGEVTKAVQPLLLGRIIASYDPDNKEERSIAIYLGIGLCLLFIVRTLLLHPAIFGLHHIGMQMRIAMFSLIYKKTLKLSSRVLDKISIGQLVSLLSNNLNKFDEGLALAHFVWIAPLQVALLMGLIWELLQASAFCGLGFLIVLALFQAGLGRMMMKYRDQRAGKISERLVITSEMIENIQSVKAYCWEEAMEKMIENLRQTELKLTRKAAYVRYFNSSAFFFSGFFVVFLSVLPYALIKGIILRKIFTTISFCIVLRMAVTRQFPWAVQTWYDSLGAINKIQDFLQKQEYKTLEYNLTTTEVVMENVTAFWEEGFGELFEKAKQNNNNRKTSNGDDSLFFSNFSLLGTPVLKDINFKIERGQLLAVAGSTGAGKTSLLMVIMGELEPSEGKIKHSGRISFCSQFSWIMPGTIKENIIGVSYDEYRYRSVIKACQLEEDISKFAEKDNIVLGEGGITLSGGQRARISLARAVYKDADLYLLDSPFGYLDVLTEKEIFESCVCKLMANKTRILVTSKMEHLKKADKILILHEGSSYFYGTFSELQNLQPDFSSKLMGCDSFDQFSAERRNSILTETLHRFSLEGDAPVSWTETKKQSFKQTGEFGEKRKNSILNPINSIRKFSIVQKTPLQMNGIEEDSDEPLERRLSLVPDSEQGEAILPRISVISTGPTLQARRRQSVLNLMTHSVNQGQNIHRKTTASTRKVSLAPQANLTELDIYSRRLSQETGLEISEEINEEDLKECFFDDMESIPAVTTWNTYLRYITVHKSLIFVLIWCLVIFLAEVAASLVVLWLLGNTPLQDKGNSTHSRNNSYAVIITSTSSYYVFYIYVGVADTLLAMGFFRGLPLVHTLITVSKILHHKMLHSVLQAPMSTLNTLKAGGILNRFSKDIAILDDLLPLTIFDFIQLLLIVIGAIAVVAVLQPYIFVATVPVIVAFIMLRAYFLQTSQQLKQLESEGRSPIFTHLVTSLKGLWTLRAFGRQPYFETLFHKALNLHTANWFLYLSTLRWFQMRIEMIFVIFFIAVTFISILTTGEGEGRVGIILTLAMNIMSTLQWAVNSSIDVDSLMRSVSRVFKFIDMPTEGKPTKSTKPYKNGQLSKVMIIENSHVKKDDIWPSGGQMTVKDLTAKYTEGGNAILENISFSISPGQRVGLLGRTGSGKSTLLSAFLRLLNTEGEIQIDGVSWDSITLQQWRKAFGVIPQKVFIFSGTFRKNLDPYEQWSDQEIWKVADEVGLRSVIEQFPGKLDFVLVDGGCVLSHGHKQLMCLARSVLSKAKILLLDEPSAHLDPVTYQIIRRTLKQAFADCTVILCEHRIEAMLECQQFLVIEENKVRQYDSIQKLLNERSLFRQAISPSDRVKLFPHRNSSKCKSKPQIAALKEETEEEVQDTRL

Consider `Cc1cccc(C)c1-c1cc2nc(n1)NS(=O)(=O)c1cccc(c1)C(=O)N(Cc1cncc(N3CC[C@H]3C)n1)[C@H](COC(C)C)CO2` [Compound 1926], for which the “HBE2 Activity at 3 μM (%)” value under setting [1] is “+++ (+++ is >60+)”.

For the compound `Cc1cccc(C)c1-c1cc2nc(n1)NS(=O)(=O)c1cccc(c1)C(=O)N(Cc1cccc(N3CCC[C@H]3C)n1)[C@H](CC1(C)CCC1)CO2` [Compound 1777], under setting [1], the “HBE2 Activity at 3 μM (%)” value was “+++ (+++ is >60+)”.

As to `Cc1cccc(C)c1-c1cc2nc(n1)NS(=O)(=O)c1cccc(c1)C(=O)N(Cc1cc(N)cc(N(C)C3CCC3)n1)[C@H](CC(C)(C)C)CO2` [Compound 1928], under setting [1], the “HBE2 Activity at 3 μM (%)” value is recorded as “+++ (+++ is >60+)”.

For `Cc1cccc(C)c1-c1cc2nc(n1)NS(=O)(=O)c1cccc(c1)C(=O)N(Cc1cncc(N3CCC[C@H]4CC[C@H]43)n1)[C@H](CC(C)(C)C)CO2` (single isomer, unassigned) [Compound 1315], the “HBE2 Activity at 3 μM (%)” value (3 μM, with 44 nM potentiator) was “+++ (+++ is >60+)”. Under “with 44 nM potentiator”, the negative logarithm of the EC50 (pEC50) (usually the EC50 on a negative log10 scale, so that one unit is a factor of ten) was above 6.00 and the Emax is above 60%.

Take `Cc1cccc(C)c1-c1cc2nc(n1)NS(=O)(=O)c1cccc(c1)C(=O)N(Cc1cncc(N(C)C3CCC3)n1)[C@H](CC1CC(C)(C)C1)CO2` (single isomer, unassigned) [Compound 1339, 12-[[6-[Cyclobutyl(methyl)amino]pyrazin-2-yl]methyl]-11-[(3,3-dimethylcyclobutyl)methyl]-6-(2,6-dimethylphenyl)-2,2-dioxo-9-oxa-2λ^6-thia-3,5,12,19-tetrazatricyclo[12.3.1.14,8]nonadeca-1(18),4(19),5,7,14,16-hexaen-13-one]: the “HBE2 Activity at 3 μM (%)” value under setting [1] is on record as “+++ (+++ is >60+)”.

Turning to `Cc1cccc(C)c1-c1cc2nc(n1)NS(=O)(=O)c1cccc(c1)C(=O)N(Cc1cccc(N3CCC[C@H]3C)n1)[C@H](COC(C)C)CO2` [Compound 1954], the “HBE2 Activity at 3 μM (%)” value under setting [1] is listed as “+++ (+++ is >60+)”.

Consider `Cc1cccc(C)c1-c1cc2nc(n1)NS(=O)(=O)c1cccc(c1)C(=O)N(Cc1cncc(N3CCCC3C(C)C)n1)[C@H](CC1CCCCC1)CO2` (stereo partly drawn) [Compound 1824], for which, under setting [1], the “HBE2 Activity at 3 μM (%)” value is “+++ (+++ is >60+)”.

As for `Cc1cccc(C)c1-c1cc2nc(n1)NS(=O)(=O)c1cccc(c1)C(=O)N(Cc1ncc(N3CCC(C)(C)C3)cn1)[C@H](CC1(C)CC1)CO2` [Compound 1561], the “HBE2 Activity at 3 μM (%)” value (3 μM, with 44 nM potentiator) was “+++ (+++ is >60+)”.

Regarding `Cc1cccc(C)c1-c1cc2nc(n1)NS(=O)(=O)c1cccc(c1)C(=O)N(Cc1cncc(N3CCC[C@@H]4CC[C@@H]43)n1)[C@H](CC1CC1)CO2` [Compound 1839], the “HBE2 Activity at 3 μM (%)” value under setting [1] is given as “+++ (+++ is >60+)”.

Regarding `Cc1cccc(C)c1-c1cc2nc(n1)NS(=O)(=O)c1cccc(c1)C(=O)N(Cc1cncc(N3CCC[C@@H]4COC[C@@H]43)n1)[C@H](CC(C)(C)C)CO2` [Compound 1680], where the note is “3 μM, with 44 nM potentiator”, the “HBE2 Activity at 3 μM (%)” value is given as “+++ (+++ is >60+)”.

For the compound `Cc1cccc(C)c1-c1cc2nc(n1)NS(=O)(=O)c1cccc(c1)C(=O)N(Cc1cncc(NC3CCC3)n1)[C@H](CC(C)(C)C)CO2` [Compound 1603], where the note is “with 44 nM potentiator”, the negative logarithm of the EC50 (pEC50) was above 6.00 and the Emax was above 60%.

Take `Cc1cccc(C)c1-c1cc2nc(n1)NS(=O)(=O)c1cccc(c1)C(=O)N(Cc1cncc(N(C)C3CC(F)(F)C3)n1)[C@H](CCC(C)(C)C)CO2` [Compound 1815]: the “HBE2 Activity at 3 μM (%)” value under setting [1] is listed as “+++ (+++ is >60+)”.

Consider `Cc1cccc(C)c1-c1cc2nc(n1)NS(=O)(=O)c1cccc(c1)C(=O)N(Cc1cncc(N3CCCC3CC(=O)N(C)C)n1)[C@H](CC(C)(C)C)CO2` (stereo partly drawn) [Compound 1658], for which the “HBE2 Activity at 3 μM (%)” value (3 μM, with 44 nM potentiator) was “+++ (+++ is >60+)”.

As for `Cc1cccc(C)c1-c1cc2nc(n1)NS(=O)(=O)c1cccc(c1)C(=O)N(Cc1cncc(N(C)C3CCC3)n1)[C@H](CCC1CC1)CO2` [Compound 1684], for the setting “3 μM, with 44 nM potentiator”, the “HBE2 Activity at 3 μM (%)” value is given as “+++ (+++ is >60+)”. Besides, under “with 44 nM potentiator”, the pEC50 was above 6.00 and the Emax was above 60%.

For `CCN(c1cncc(CN2C(=O)c3cccc(c3)S(=O)(=O)Nc3nc(cc(-c4c(C)cccc4C)n3)OC[C@H]2CCC(C)C)n1)C1CCC1` [Compound 1764], the “HBE2 Activity at 3 μM (%)” value under setting [1] was “+++ (+++ is >60+)”.

Consider `Cc1cccc(C)c1-c1cc2nc(n1)NS(=O)(=O)c1cccc(c1)C(=O)N(Cc1cncc(N(C)[C@@H]3CC[C@H]3C)n1)[C@H](CC(C)(C)C)CO2` (stereo in doubt) [Compound 1772], for which the “HBE2 Activity at 3 μM (%)” value under setting [1] was “+++ (+++ is >60+)”.

On to `Cc1cccc(C)c1-c1cc2nc(n1)NS(=O)(=O)c1cccc(c1)C(=O)N(Cc1cncc(N3CCOCC34CCC4)n1)[C@H](CC(C)(C)C)CO2` [Compound 1627], for which, under “3 μM, with 44 nM potentiator”, the “HBE2 Activity at 3 μM (%)” value is reported as “+++ (+++ is >60+)”.

With `COCC1(CN(C)c2cncc(CN3C(=O)c4cccc(c4)S(=O)(=O)Nc4nc(cc(-c5c(C)cccc5C)n4)OC[C@H]3CCC(C)(C)C)n2)CC1` [Compound 1876], the “HBE2 Activity at 3 μM (%)” value under setting [1] was “+++ (+++ is >60+)”.

Take `Cc1cccc(C)c1-c1cc2nc(n1)NS(=O)(=O)c1cccc(c1)C(=O)N(Cc1cncc(N3CCCOC4CCC43)n1)[C@H](CC(C)(C)C)CO2` (stereo partly drawn) [Compound 1332, (11R)-6-(2,6-Dimethylphenyl)-11-(2,2-dimethylpropyl)-12-[[6-(2-oxa-6-azabicyclo[5.2.0]nonan-6-yl)pyrazin-2-yl]methyl]-2,2-dioxo-9-oxa-2λ^6-thia-3,5,12,19-tetrazatricyclo[12.3.1.14,8]nonadeca-1(18),4(19),5,7,14,16-hexaen-13-one]: the “HBE2 Activity at 3 μM (%)” value under setting [1] is reported as “+++ (+++ is >60+)”.

In the case of `Cc1cccc(C)c1-c1cc2nc(n1)NS(=O)(=O)c1cccc(c1)C(=O)N(Cc1ncc(N3CCC(C)(C)C3)cn1)[C@H](CC(C)(C)F)CO2` [Compound 1564], for the setting “3 μM, with 44 nM potentiator”, the “HBE2 Activity at 3 μM (%)” value is on record as “+++ (+++ is >60+)”.

`Cc1cccc(C)c1-c1cc2nc(n1)NS(=O)(=O)c1cccc(c1)C(=O)N(Cc1cncc(N(C)C3CCC3)n1)[C@H](C1CC3(CCC3)C1)CO2` (single isomer, unassigned) [Compound 1321, 12-[[6-[cyclobutyl(methyl)amino]pyrazin-2-yl]methyl]-6-(2,6-dimethylphenyl)-2,2-dioxo-11-spiro[3.3]heptan-2-yl-9-oxa-2λ^6-thia-3,5,12,19-tetrazatricyclo[12.3.1.14,8]nonadeca-1(18),4(19),5,7,14,16-hexaen-13-one]: where the note is “3 μM, with 44 nM potentiator”, the “HBE2 Activity at 3 μM (%)” value was “++ (++ is 30-60%)”.

Regarding `Cc1cccc(C)c1-c1cc2nc(n1)NS(=O)(=O)c1cccc(c1)C(=O)N(Cc1cncc(N3CCCC[C@H]3C)n1)[C@H](CC(C)(C)F)CO2` [Compound 1805], the “HBE2 Activity at 3 μM (%)” value under setting [1] is reported as “+++ (+++ is >60+)”.

Turning to `Cc1cccc(C)c1-c1cc2nc(n1)NS(=O)(=O)c1cccc(c1)C(=O)N(Cc1cncc(N(C)C3CCC3)n1)[C@H](CCC1(C)CC1)CO2` [Compound 1336, 12-[[6-[cyclobutyl(methyl)amino]pyrazin-2-yl]methyl]-6-(2,6-dimethylphenyl)-11-[2-(1-methylcyclopropyl)ethyl]-2,2-dioxo-9-oxa-2λ^6-thia-3,5,12,19-tetrazatricyclo[12.3.1.14,8]nonadeca-1(18),4(19),5,7,14,16-hexaen-13-one], under setting [1], the “HBE2 Activity at 3 μM (%)” value is “+++ (+++ is >60+)”.

`Cc1cccc(C)c1-c1cc2nc(n1)NS(=O)(=O)c1cccc(c1)C(=O)N(Cc1ccc3nc(C(C)C)n(C)c3n1)[C@H](COC(C)C)CO2` [Compound 1930]: the “HBE2 Activity at 3 μM (%)” value under setting [1] is listed as “+++ (+++ is >60+)”.

Consider `Cc1cccc(C)c1-c1cc2nc(n1)NS(=O)(=O)c1cccc(c1)C(=O)N(Cc1cncc(N(C)C3CCC3)n1)[C@H](C1CC(C)(C)C1)CO2` (stereo in doubt) [Compound 1895], for which the “HBE2 Activity at 3 μM (%)” value under setting [1] is recorded as “++ (++ is 30-60%)”.

For `Cc1cccc(C)c1-c1cc2nc(n1)NS(=O)(=O)c1cccc(c1)C(=O)N(Cc1cncc(OC3CCC3)n1)[C@H](CC(C)(C)C)CO2` [Compound 1601], the “HBE2 Activity at 3 μM (%)” value (3 μM, with 44 nM potentiator) is listed as “+++ (+++ is >60+)”.

Take `Cc1cccc(C)c1-c1cc2nc(n1)NS(=O)(=O)c1cccc(c1)C(=O)N(Cc1cncc(N3CCCC[C@H]3C)n1)[C@H](CC1CC(C)(C)C1)CO2` [Compound 1901]: under setting [1], the “HBE2 Activity at 3 μM (%)” value is listed as “+++ (+++ is >60+)”.

On to `Cc1cccc(C)c1-c1cc2nc(n1)NS(=O)(=O)c1cccc(c1)C(=O)N(Cc1cncc(N3CCC4OCCC43)n1)[C@H](CC(C)(C)C)CO2` (stereo partly drawn) [Compound 1642], for which the “HBE2 Activity at 3 μM (%)” value (3 μM, with 44 nM potentiator) is given as “+++ (+++ is >60+)”.

For `Cc1cccc(C)c1-c1cc2nc(n1)NS(=O)(=O)c1cccc(c1)C(=O)N(Cc1cncc(N3CCCC4CCC43)n1)[C@H](CC1(C)CCC1)CO2` (stereo partly drawn) [Compound 1794], the “HBE2 Activity at 3 μM (%)” value under setting [1] was “+++ (+++ is >60+)”.

As for `Cc1cccc(C)c1-c1cc2nc(n1)NS(=O)(=O)c1cccc(c1)C(=O)N(Cc1cncc(N(C)CC(C)(C)C)n1)[C@H](CCC1CC1)CO2` [Compound 1719], under setting [1], the “HBE2 Activity at 3 μM (%)” value is given as “+++ (+++ is >60+)”. Besides, where the note is “corrector at a range of concentrations with 44 nM potentiator”, the pEC50 is above 6.00. The Emax (with 44 nM potentiator) is above 60%.

As for `Cc1cccc(C)c1-c1cc2nc(n1)NS(=O)(=O)c1cccc(c1)C(=O)N(Cc1cncc(N(C)C3CCC3)n1)[C@H](COC1CC1)CO2` [Compound 1893], the “HBE2 Activity at 3 μM (%)” value under setting [1] is on record as “+++ (+++ is >60+)”.

With `Cc1cccc(C)c1-c1cc2nc(n1)NS(=O)(=O)c1cccc(c1)C(=O)N(Cc1cncc(N(C)CC3CC3)n1)[C@H](CCC(C)(C)C)CO2` [Compound 1810], under setting [1], the “HBE2 Activity at 3 μM (%)” value is listed as “+++ (+++ is >60+)”.

For the compound `CC[C@@H](C)[C@@H]1COc2cc(-c3c(C)cccc3C)nc(n2)NS(=O)(=O)c2cccc(c2)C(=O)N1Cc1cncc(N(C)C2CCC2)n1` [Compound 1702], where the note is “with 44 nM potentiator”, the pEC50 was above 6.00 and the Emax is above 60%.

In the case of `Cc1cccc(C)c1-c1cc2nc(n1)NS(=O)(=O)c1cccc(c1)C(=O)N(Cc1cncc(N3CCCC[C@H]3C)n1)[C@H](CC1(C)CCC1)CO2` [Compound 1744], the “HBE2 Activity at 3 μM (%)” value under setting [1] is reported as “+++ (+++ is >60+)”.
